Measured values published in patent publication US12509467B2 (Hoffmann-La Roche Inc., priority 2020, dated 2025).
pIC50: −log10 of the molar value.

The compounds below were run against T1, human cGAS (residues 161-522) (Homo sapiens, UniProt Q8N884) (assay: cGAS Activity Assay—Malachite Green). Conditions: not given.
T1 construct: Recombinantly expressed purified human cGAS (residues 161-522) was used at 25 nM; made in house
Type: biochemical
Method: Compounds were tested for cGAS inhibition in a coupled enzymatic assay based on Phosphate detection by Malachite Green. Final assay conditions were 20 mM TRIS pH 7.5 (Applichem), 5 mM MgCl2 (Sigma) and 0.01% BSA (Sigma) supplemented with 80 μM ATP (Sigma), 80 μM GTP (Sigma) and 100 nM Interferon Stimulating DNA (ISD) (Microsynth).
1 μL of DMSO dilution series was transferred to 32.3 μL reaction buffer, mixed by pipetting up/down, spun for 1 minute at 3000 rpm and was visually inspected for precipitation. 5 μL of 3-fold enzyme stock solution were transferred to an empty 384-well Black/Clear Flat Bottom Polystyrene NBS (Corning) rows 3-24. Rows 1-2 were filled with assay buffer. Plates were spun 10 seconds at 1000 rpm (164×g). 5 μL of compound intermediate dilution was added and mixed by pipetting up/down to rows 3-24. Rows 1-2 were filled with 3.1% DMSO assay buffer. Plates were spun 10 seconds at 1000 rpm (164×g). 5 μL 3-fold Nucleotide/DNA mix was added to all wells to start the reaction. Plates were spun 10 seconds at 1000 rpm (164×g) and incubated for 4 hour at room temperature (RT) in the dark. 5 μL 4 U/mL PPase (Sigma) were added to all wells. Plates spun 10 seconds at 1000 rpm (164×g). 10 μL BioMol green Solution (Enzo Life Sciences) was added to all wells. Plates spun 10 seconds at 1000 rpm (164×g) and incubated 30 minutes at RT in the dark. Absorbance data was collected 620 nm on an EnVision Multilable Reader (Perkin Elmer) and the following measurement settings were used: excitation filter photometric was 620 nm; excitation from the top; measurement height was 1 mm; number of flashes was 30; number of flashes integrated was 1.
All plates are checked for abnormalities and outliers in the Blank Control (no protein, row 1) and the Neutral Control (no compound, row 2) are excluded using the 3*SD rule.
Table 5 provides IC50 values (μM) for cGAS inhibition obtained for particular examples of the present invention as measured by the above-described assay.

T1 sequence (Q8N884 161-522): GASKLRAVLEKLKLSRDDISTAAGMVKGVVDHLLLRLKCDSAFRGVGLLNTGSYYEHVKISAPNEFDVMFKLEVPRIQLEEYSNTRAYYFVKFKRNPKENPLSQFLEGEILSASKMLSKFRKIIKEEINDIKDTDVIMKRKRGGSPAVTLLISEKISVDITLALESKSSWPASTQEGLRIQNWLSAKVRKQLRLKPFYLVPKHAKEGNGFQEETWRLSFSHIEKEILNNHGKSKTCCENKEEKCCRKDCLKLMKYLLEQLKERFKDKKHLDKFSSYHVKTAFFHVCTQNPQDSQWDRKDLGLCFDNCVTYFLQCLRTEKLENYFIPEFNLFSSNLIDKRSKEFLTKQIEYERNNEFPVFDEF

Row | pIC50 | Compound
1 | 5.39 | CCCc1cc(=O)n2nc(NCc3ccc(Cl)cc3F)nc2[nH]1 [Example 62]
2 | 5.34 | O=c1cc(CNc2ccccc2)[nH]c2nc(NCc3ccc(Cl)cc3Cl)nn12 [Example 79, 5-(Anilinomethyl)-2-[(2,4-dichlorophenyl)methylamino]-4H-[1,2,4]triazolo[1,5-a]pyrimidin-7-one]
3 | 5.54 | CCCc1cc(=O)n2nc(OCc3cc(-c4cnn(C)c4)ccc3Cl)nc2[nH]1 [Example 91, 2-[[2-Chloro-5-(1-methylpyrazol-4-yl)phenyl]methoxyl]-5-propyl-4H-[1,2,4]triazolo[1,5-a]pyrimidin-7-one]
4 | 5.08 | CC(Nc1nc2[nH]c(C(F)(F)F)cc(=O)n2n1)c1ccc(Cl)cc1Cl (centres unmarked) [Example 77, 2-[1-(2,4-dichlorophenyl)ethyl-amino]-5-(trifluoromethyl)-4H-[1,2,4]triazolo[1,5-a]pyrimidin-7-one]
5 | 6.35 | CCCc1cc(=O)n2nc(NCc3cc(-c4cn(C)cn4)ccc3Cl)nc2[nH]1 [Example 30, 2-[[2-chloro-5-(1-methylimid-azol-4-yl)phenyl]methylamino]-5-propyl-4H-[1,2,4]triazolo[1,5-a]pyrimidin-7-one]
6 | 5.48 | O=c1cc(CCCC(F)F)[nH]c2nc(NCc3ccc(Cl)cc3Cl)nn12 [Example 52, 2-[(2,4-dichlorophenyl)methyl-amino]-5-(4,4-difluorobutyl)-4H-[1,2,4]triazolo[1,5-a]-pyrimidin-7-one]

Same assay, conditions: cGAS inhibition; 25 nM cGAS, 80 μM ATP, 80 μM GTP, 100 nM ISD, 4 hour at RT, Malachite Green phosphate detection; read-out: IC50 cGAS

Row | pIC50 | Compound
7 | 5.70 | CCCCc1cc(=O)n2nc(NCc3ccn(-c4ccccc4)n3)nc2[nH]1 [Example 47, 5-butyl-2-[(1-phenylpyrazol-3-yl)methylamino]-4H-[1,2,4]-triazolo[1,5-a]pyrimidin-7-one]
8 | 5.94 | CCCc1cc(=O)n2nc(NCc3cc(-c4ccn(C)n4)ccc3C#N)nc2[nH]1 [Example 84, 4-(1-methylpyrazol-3-yl)-2-[[(7-oxo-5-propyl-4H-[1,2,4]-triazolo[1,5-a]pyrimidin-2-yl)amino]methyl]benzonitrile]
9 | 5.68 | Cc1cc(=O)n2nc(NCc3cc(-c4ccn(C)n4)ccc3Cl)nc2[nH]1 [Example 34, 2-[[2-chloro-5-(1-methylpyrazol-3-yl)phenyl]methylamino]-5-methyl-4H-[1,2,4]triazolo[1,5-a]-pyrimidin-7-one]
10 | 5.59 | CCCc1cc(=O)n2nc(NCc3cccc(-c4ccccc4)c3)nc2[nH]1 [Example 16, 2-[(3-phenylphenyl)methyl-amino]-5-propyl-4H-[1,2,4]-triazolo[1,5-a]pyrimidin-7-one]
11 | 5.31 | CCCc1cc(=O)n2nc(NCc3ccc(-c4ccn(C)n4)cc3)nc2[nH]1 [Example 14, 2-[[4-(1-methylpyrazol-3-yl)-phenyl]methylamino]-5-propyl-4H-[1,2,4]triazolo[1,5-a]-pyrimidin-7-one]
12 | 6.15 | CCCc1cc(=O)n2nc(NCc3ccc(N4CCOCC4)cc3Cl)nc2[nH]1 [Example 41, 2-[(2-chloro-4-morpholino-phenyl)methylamino]-5-propyl-4H-[1,2,4]triazolo[1,5-a]-pyrimidin-7-one]
13 | 5.59 | CCCc1cc(=O)n2nc(NCc3cc(N4CCCCC4)ncc3Cl)nc2[nH]1 [Example 94, 2-[[5-chloro-2-(1-piperidyl)-4-pyridyl]methylamino]-5-propyl-4H-[1,2,4]triazolo[1,5-a]pyrimidin-7-one]
14 | 6.18 | Cn1ccc(-c2ccc(Cl)c(CNc3nc4[nH]c(C(F)(F)F)cc(=O)n4n3)c2)n1 [Example 19, 2-[[2-chloro-5-(1-methylpyrazol-3-yl)phenyl]methylamino]-5-(trifluoromethyl)-4H-[1,2,4]-triazolo[1,5-a]pyrimidin-7-one]
15 | 6.09 | CCCCc1cc(=O)n2nc(NCc3cc(-c4ccccc4)on3)nc2[nH]1 [Example 46, 5-butyl-2-[(5-phenylisoxazol-3-yl)methylamino]-4H-[1,2,4]-triazolo[1,5-a]pyrimidin-7-one-5-butyl-2-[(5-phenylisoxazol-3-yl)methylamino]-4H-[1,2,4]-triazolo[1,5-a]pyrimidin-7-one]
16 | 5.62 | CCCc1cc(=O)n2nc(NCc3ccc(C#N)cc3Cl)nc2[nH]1 [Example 7, 3-chloro-4-[[(7-oxo-5-propyl-4H-[1,2,4]triazolo[1,5-a]-pyrimidin-2-yl)amino]methyl]-benzonitrile]
17 | 6.31 | CCCc1cc(=O)n2nc(NCc3cc(Nc4nccs4)ccc3Cl)nc2[nH]1 [Example 89, 2-[[2-chloro-5-(thiazol-2-ylamino)phenyl]methylamino]-5-propyl-4H-[1,2,4]triazolo[1,5-a]pyrimidin-7-one]
18 | 5.36 | CCCc1cc(=O)n2nc(NCc3ccc(-c4ncccn4)cc3)nc2[nH]1 [Example 2, 5-propyl-2-[(4-pyrimidin-2-yl-phenyl)methylamino]-4H-[1,2,4]-triazolo[1,5-a]pyrimidin-7-one;]
19 | 5.18 | CCCCc1cc(=O)n2nc(NCc3cc(-c4ccccc4)nn3C)nc2[nH]1 [Example 44, 5-butyl-2-[(2-methyl-5-phenyl-pyrazol-3-yl)methylamino]-4H-[1,2,4]triazolo[1,5-a]pyrimidin-7-one]
20 | 6.09 | CCc1cc(=O)n2nc(NCc3cc(-c4ccn(C)n4)ccc3Cl)nc2[nH]1 [Example 33, 2-[[2-chloro-5-(1-methylpyrazol-3-yl)phenyl]methylamino]-5-ethyl-4H-[1,2,4]triazolo[1,5-a]pyrimidin-7-one]
21 | 5.52 | CCCc1cc(=O)n2nc(NCc3ccc4ncccc4c3)nc2[nH]1 [Example 22, 5-propyl-2-(6-quinolylmethyl-amino)-4H-[1,2,4]triazolo[1,5-a]pyrimidin-7-one]
22 | 6.49 | CCCc1cc(=O)n2nc(NCc3cc(-c4ncccn4)ccc3Cl)nc2[nH]1 [Example 43, 2-[(2-chloro-5-pyrimidin-2-yl-phenyl)methylamino]-5-propyl-4H-[1,2,4]triazolo[1,5-a]-pyrimidin-7-one]
23 | 5.45 | CCCCc1cc(=O)n2nc(NCc3cnn(-c4cnccn4)c3)nc2[nH]1 [Example 45, 5-butyl-2-[(1-pyrazin-2-ylpyr-azol-4-yl)methylamino]-4H-[1,2,4]triazolo[1,5-a]pyrimidin-7-one]
24 | 5.29 | CCc1cc(=O)n2nc(NCc3ccc(Cl)cc3Cl)nc2[nH]1 [Example 37, 2-[(2,4-dichlorophenyl)methyl-amino]-5-ethyl-4H-[1,2,4]-triazolo[1,5-a]pyrimidin-7-one]
25 | 6.79 | CCCCc1cc(=O)n2nc(NCc3cc(-c4ccn(C)n4)ccc3Cl)nc2[nH]1 [Example 32, 5-butyl-2-[[2-chloro-5-(1-methyl-pyrazol-3-yl)phenyl]methyl-amino]-4H-[1,2,4]triazolo[1,5-a]pyrimidin-7-one]
26 | 5.42 | O=c1cc(C2CC2)[nH]c2nc(NCc3ccc(Cl)cc3Cl)nn12 [Example 59, 5-cyclopropyl-2-[(2,4-dichloro-phenyl)methylamino]-4H-[1,2,4]triazolo[1,5-a]pyrimidin-7-one]
27 | 5.67 | CCCc1cc(=O)n2nc(NCc3ccc(N4CCOCC4)cc3)nc2[nH]1 [Example 42, 2-[(4-morpholinophenyl)meth-amino]-5-propyl-4H-[1,2,4]-triazolo[1,5-a]pyrimidin-7-one]
28 | 5.56 | CCCc1cc(=O)n2nc(NCc3cc(-c4cccnn4)ccc3Cl)nc2[nH]1 [Example 85, 2-[(2-Chloro-5-pyridazin-3-yl-phenyl)methylamino]-5-propyl-4H-[1,2,4]triazolo[1,5-a]pyrimidin-7-one]
29 | 5.61 | CCCc1cc(=O)n2nc(NCc3cc(-c4ccccc4)ccc3Cl)nc2[nH]1 [Example 23, 2-[(2-chloro-5-phenylphenyl)-methylamino]-5-propyl-4H-[1,2,4]triazolo[1,5-a]pyrimidin-7-one]
30 | 6.19 | CCCc1cc(=O)n2nc(NCc3cc(N4CC(OC)C4)ncc3Cl)nc2[nH]1 [Example 93, 2-[[5-Chloro-2-(3-methoxyazetidin-1-yl)-4-pyridyl]methylamino]-5-propyl-4H-[1,2,4]triazolo[1,5-a]pyrimidin-7-one]
31 | 6.56 | CCCc1cc(=O)n2nc(NCc3cc(-c4ccncn4)ccc3Cl)nc2[nH]1 [Example 38, 2-[(2-chloro-5-pyrimidin-4-yl-phenyl)methylamino]-5-propyl-4H-[1,2,4]triazolo[1,5-a]-pyrimidin-7-one]
32 | 6.31 | COCCc1cc(=O)n2nc(NCc3cc(-c4ccn(C)n4)ccc3Cl)nc2[nH]1 [Example 51, 2-[[2-chloro-5-(1-methylpyrazol-3-yl)phenyl]methylamino]-5-(2-methoxyethyl)-4H-[1,2,4]-triazolo[1,5-a]pyrimidin-7-one]
